Laboratory results: patent US4214001A, “1-(4-Acylamino-phenyl)-2-amino-ethanols and salts thereof” (Boehringer Ingelheim GmbH, priority 1977, dated 1980)
Where two headings read alike, the source gives them in different places.

Columns and labels:
[1] = Acute toxicity, intravenous, LD50; conditions: mouse, in vivo, i.v., mice, animals which died within 14 days
Description: The intravenous toxicity was determined on laboratory mice of both sexes having an average body weight of 20 gm. From the number of animals which died within 14 days at various dosage levels, the median lethal dose (LD50) was calculated by the method of Litchfield and Wilcoxon, supra.

[2] = test system: bronchospasms induced by acetylcholine; experiment: Bronchospasmolytic activity (method of Konzett et al.), acetylcholine-induced bronchospasm; type: in vivo; conditions: anesthetized guinea pigs; for ED50: Cavia porcellus, dose which produces a 50% reduction of the bronchospasm, acetylcholine 20 mgm/kg i.v.
Description: The compounds were tested on adult guinea pigs of both sexes by the standard pharmacological test method of Konzett et al., Naunyn-Schmiedeberg's Arch. Exp. Path. Pharmakol. 195, 71-74 (1940). The test animals were anesthetized with 1.5 gm/kg urethane i.p. The bronchospasms were induced by injection of 20 mgm/kg of acetylcholine i.v. The test compound was administered intravenously or intraduodenally. From the average values of maximum decrease in bronchoconstriction obtained at various dosage levels, an ED50 i.e. the dose which produces a 50% reduction of the bronchospasm, with confidence limits according to Fieller, Quart. J. Pharm. Phamacol. 17, 117-123 (1944), was calculated by linear regression analysis according to Linder, Statistische Methoden, 4th Ed., 148-162, published by Birkhauser, Basel, Switzerland (1964).

[3] = test system: asthma attack induced by acetylcholine aerosol; experiment: Antiasthmatic activity (method of Kallos et al.), acetylcholine aerosol; type: in vivo, guinea pigs
Description: The standard test method of Kallos et al., Acta med. scand. 91, 292 (1937) was used. The test compound was orally administered to adult guinea pigs which were then exposed to an acetylcholine aerosol steam produced with an aerosol nozzle at 1.5 atmospheres gauge from a 0.4% solution of acetylcholine in an aqueous 0.9% sodium chloride solution. A more than three-fold prolongation of the time until onset of the asthma attack in comparision to untreated controls was evaluated as absolute protection. From the number of animals which were protected at various dosages, an ED50, i.e. the dose which gives absolute protection in 50% of the animals, was calculated by the method of Litchfield and Wilcoxon, J. Pahrmacol. Exper. Ther. 96, 99 (1949).

[4] = iv, read-out: ED50 after i.v. administration
[5] = i.d. (intraduodenal), read-out: ED50 after i.d. administration

## CCOC(=O)Nc1c(F)cc(C(O)CNC(C)(C)C)cc1Cl.Cl (stereo not drawn) [A, 1-(4'-ethoxycarbonylamino-3'-chloro-5'-fluoro-phenyl)-2-tert.-butylamino-ethanol hydrochloride]
[1]
  LD50 at 336 h: 70.2 mg/kg
[2]; [4]
  ED50: 0.0307 mg/kg
[2]; [5]
  ED50: 0.0323 mg/kg
[2]
  t/2 after i.v. administration: 60 min

## CCOC(=O)Nc1c(F)cc(C(O)CNC(C)(C)C)cc1C#N.Cl (stereo not drawn) [B, 1-(4'-ethoxycarbonylamino-3'-cyano-5'-fluoro-phenyl)-2-tert.-butylamino-ethanol hydrochloride]
[1]
  LD50 at 336 h: 97.5 mg/kg
[3]; Cavia porcellus, po, dose which gives absolute protection in 50% of the animals (more than three-fold prolongation of time until onset of asthma attack), acetylcholine aerosol 0.4%
  ED50: 0.0143 mg/kg
[3]; p.o., guinea pigs
  t/2: 150 min
[3]; p.o., guinea pigs, time of maximum effect
  Max. effect after min.: 15 to 30 min
[2]; [4]
  ED50: 0.0056 mg/kg
[2]; [5]
  ED50: 0.007 mg/kg
[2]
  t/2 after i.v. administration: 70 min

## CCOC(=O)Nc1ccc(C(O)CNC(C)(C)C)cc1C#N.Cl (stereo not drawn) [C, 1-(4'-ethoxycarbonylamino-3'-cyano-phenyl)-2-tert. butylamino-ethanol hydrochloride]
[1]
  LD50 at 336 h: 67.2 mg/kg
[2]; [4]
  ED50: 0.0235 mg/kg
[2]; [5]
  ED50: 0.0087 mg/kg
[2]
  t/2 after i.v. administration: > 50 min

## CCOC(=O)Nc1ccc(C(O)CNC(C)C)cc1C#N.Cl (stereo not drawn) [D, 1-(4'-ethoxycarbonylamino-3'-cyano-phenyl)-2-isopropylamino-ethanol hydrochloride]
[1]
  LD50 at 336 h: 61.9 mg/kg
[2]; [4]
  ED50: 0.064 mg/kg
[2]
  t/2 after i.v. administration: > 50 min
